The record followed here is a melting point compilation (Tetko et al.; mined from patent text by program, amines drawn as free bases though some values may be those of a salt).

Molecules are shown by their SMILES.

For `N#CC=Cc1ccc(F)c(Cl)c1F`, the melting point was in the range of 76 to 77 °C. The compound `CN1CCCC1=NC(=O)Nc1cccc2ccccc12` came in with a melting point of 148 to 149 °C. Consider `Cc1sc(S(=O)(=O)NC(C)(C)CO)cc1NC(=O)c1cnn2c(C(F)(F)F)cc(-c3ccc(C(F)(F)F)cc3)nc12`, for which the melting point was 225 °C. In the case of `Cn1c(CCCOc2ccc(CC3SC(=O)NC3=O)cc2)nc2cccnc21` (configuration not stated), the melting point lay within 185 to 186 °C. The compound `OCC1Cc2ccccc2OC1CO` (configuration not stated) registered a melting point of 82 to 85 °C. The result for `Cc1cc(O)c(Oc2ccccc2C#N)cc1N1CCOCC1` reads 162 to 165 °C.

In turn, `O=c1c(Cc2cccnc2)nc2cccnc2n1-c1cccc(-c2ccc3ccccc3c2)c1` returned a melting point of 155 to 156 °C. Next, `CC1SC(=O)NN=C1c1ccc2c(c1)CC(C)(C)C(=O)N2` (configuration not stated): 245 °C; `C=CCN1CCCC1CNC(=O)c1cc(S(N)(=O)=O)cc2c1OCCO2` (configuration not stated): 143 to 144 °C; `COc1ccc(/C(C#N)=C/c2ccc(OC)c(OC3CCCC3)c2)cc1OC`: 101 to 103 °C. The result for `Nc1cc(C(=O)c2ccc(Oc3ccccc3)c(N)c2)ccc1Oc1ccccc1` reads 153 to 154 °C. Next, `COc1ccc(-c2nc(Sc3ccc(F)cc3)[nH]c2-c2ccc(OC)cc2)cc1`: 106 °C; `Cn1c(=O)c2c(nc(C=Cc3cccc([N+](=O)[O-])c3)n2C)n(C)c1=O`: 306 to 308 °C.

The compound `N#CC(Cc1c[nH]cn1)(c1ccccc1)c1ccc(Br)cc1` (configuration not stated) returned a melting point of 121 to 124 °C. As to `COc1ccc(C(=O)CN2CCNC2=O)cc1OC`, the melting point came out at 167 °C. In turn, `O=c1[nH]c2cc(Cl)ccc2n1C1CCN(CCCC(c2ccc(F)cc2)c2ccc(F)cc2)CC1` showed a melting point of 186 °C. As for `CCOCn1c(-c2ccc(Cl)cc2)c(C(N)=O)c(Br)c1C(F)(F)F`, the melting point was in the range of 163 to 172 °C. `CCCCCCCCCCC[C@]1(C)OO[C@@H]2C[C@H]1CC(=O)[C@@H]2C` came in with a melting point of 42 °C. With `Cc1cccc2c1N(CC(=O)N1CC3CCC(CC3)C1)C(=O)C(NC(=O)Nc1cccc(O)c1)N=C2c1ccccc1F` (configuration not stated), the melting point fell in the range of 193 to 204 °C.

`O=c1c2ccc(F)cc2nc(CSc2ncnc3[nH]cnc23)n1-c1ccccc1Cl` displayed a melting point of 151 to 154 °C.

The compound `COc1ccccc1N1CCN(Cc2ccc(CC(=O)O)cc2)CC1` came in with a melting point of 87 to 90 °C. Next, `CCn1nc2c(N)nc3ccccc3c2c1CC(C)(C)NS(C)(=O)=O`: 229 to 230 °C. Next, `CS(=O)(=O)N1CCSc2cccc(F)c2C1`: 115 to 117 °C; `Cc1ccc(-n2nc(C)c(NC(N)=S)c2C)cc1`: 240 to 241 °C. Turning to `NC(=O)c1ccc(C(O)c2c(O)c(=O)ccn2CCO)cc1` (configuration not stated), the melting point is 215 to 216 °C.

Compound `CN1CCC(C2Oc3cc(F)ccc3Cn3cccc32)CC1` (configuration not stated) had a melting point of 115 to 120 °C. The result for `CCc1c2c(nn1C)c(N)nc1ccccc12` reads 257 to 259 °C; that for `IC=CC(CC1CCCC1)OC(c1ccccc1)(c1ccccc1)c1ccccc1` (configuration not stated), 87 to 88 °C. Compound `Cc1ccc2c(c1)C=Cc1cc(C(C)C)ccc1C2c1cn(Cc2ccc(C(=O)O)o2)c(=O)[nH]c1=O` (configuration not stated) registered a melting point of 150 to 160 °C.

Take `CCC(C)CNC(=O)c1ccc2cccc(Cc3ccc(C(=O)OC)cc3OC)c2c1` (configuration not stated): the melting point was 134 to 135 °C.

In the case of `Cc1c(C(=O)Nc2ccc(N3CCC(N4CCSCC4)CC3)c(C#N)c2)cnn1-c1ccc(Cl)cc1`, the melting point was 256 °C. `CC(C)(C)NC(=O)c1cc(C(C)(C)C)c(O)c(C(C)(C)C)c1` returned a melting point of 207 to 208 °C. Next, `COC(CCOS(=O)(=O)c1ccc(C)cc1)CCOS(=O)(=O)c1ccc(C)cc1`: 58 °C; `CCOC(=O)CC(C)(O)c1ccc(-c2ccc(F)cc2F)cc1` (configuration not stated): 96 to 97 °C. In turn, `CNC1=NS(=O)(=O)N=C1NCCSCc1nc[nH]c1C` yielded a melting point of 98 to 110 °C. In turn, `CCCCC#Cc1cc2c(cc1Br)C(C)(C)CCC2(C)C` yielded a melting point of 59 to 63 °C. As for `CC(=O)NCC1CN(c2ncccc2Cl)C1`, the melting point is 109 to 111 °C.

The compound `CCOc1cc2c(Nc3cc(OC)c(Cl)cc3Cl)c(C#N)cnc2cc1OCCCN1CCN(C)CC1` gave a melting point of 137 to 138 °C. For `Cc1c(Cc2cc(Cl)cc(Cl)c2)c(C(C)C)nn1CCO`, the melting point was in the range of 77 to 78 °C. In turn, `CCOC(=O)C=Cc1cc(OCc2ccccc2)ccc1-c1ccc(-c2cccc(C(F)(F)F)c2)c(C=O)c1` showed a melting point of 116 to 118 °C.

The compound `Cc1ccc(N2CCCCC2)c(NC(=O)c2ccncc2)c1` yielded a melting point of 142 to 144 °C. Next, `COc1ccccc1Nc1ccc2c(c1)OCc1cc([N+](=O)[O-])ccc1C2=O`: 200 °C; `COC(=O)C1CCC2C3CCC4CC(O)CCC4(C)C3C(N)CC12C` (configuration not stated): 113 to 116 °C. `COc1cccc(CCOc2cccc(-c3cccc(C(=O)O)c3)n2)c1` showed a melting point of 156 to 157 °C. As for `Cc1cc2nnc(C)n2nc1-c1ccc(C#N)cc1`, the melting point lay in the range of 242 to 244 °C. The compound `CCOC(=O)C1=C(CSSc2ccccc2)NC(C)=C(C(=O)OC)C1c1cccc([N+](=O)[O-])c1` (configuration not stated) displayed a melting point of 132 to 133 °C. Next, `Cc1c(NC(=O)c2ccc(-c3ccc(Cl)cc3)c(F)c2)ccc2cc(CN3CCCC3)cnc12`: 190 to 192 °C; `COc1ccc(NC(=S)N2CCn3c(c(C(N)=O)c(Cl)c3-c3ccccc3)C2)cc1`: 176 to 178 °C; `O=C(O)C1CSC(c2ccccc2F)N1` (mixture of isomers): 147 °C. In turn, `Nc1c(Br)cc(-n2cnnc2)cc1C(F)(F)F` showed a melting point of 202 to 203 °C. The compound `O=C1C(Cl)C(CCl)CN1c1cccc(Cl)c1` (configuration not stated) yielded a melting point of 93 to 94 °C. Next, `Cc1cc(=O)c2cc(NC(=O)C(=O)O)ccc2s1`: 238 to 240 °C; `O=C(c1ccc(-c2ccc(-c3ccc(-c4ccc(C(=O)c5c(F)c(F)c(F)c(F)c5F)s4)s3)s2)s1)c1c(F)c(F)c(F)c(F)c1F`: 291 to 294 °C. Compound `CN1CCN(c2cccc3c2C[C@H](NC(=O)c2ccc(Br)cc2)CC3)CC1` displayed a melting point of 200 to 201 °C. The result for `CCCCCCCCCCCC(=O)Oc1ccc2cc(C(=N)N)ccc2c1` reads 149 to 151 °C; that for `CS(=O)(=O)c1ccc(-c2cnn(-c3ccc(F)cc3)c(=O)c2Cc2ccc(F)cc2)cc1`, 175 to 177 °C; that for `Cc1cc(NCc2ccccc2)c2cc(NC(=O)C=Cc3ccccc3Cl)ccc2n1`, 253 to 254 °C. On to `Cc1cc(C)cc(NC(=O)NC2CC2)c1`, for which the melting point worked out at 169 °C. Next, `CN(C)/N=C(/C(=O)O)c1ccc(OCCOc2ccc3ccccc3c2)cc1`: 135 °C; `CSC(C[N+](=O)[O-])NCCSCc1cc(C)c(CN(C)C)s1` (configuration not stated): 69 to 71 °C.

On to `CC(=O)c1ccc(OCc2cccc([N+](=O)[O-])c2)cc1O`, for which the melting point was in the range of 117 to 118 °C.

Compound `COc1ccc(-c2cc(=O)c3ccc(OCC(O)CNC(C)C)cc3o2)cc1OC` (configuration not stated) came in with a melting point of 144 to 145 °C.

The melting point is the temperature of the solid-liquid transition.
